Assays:
[1] = system: S. albus J1074/pKC505; experiment: Paper disc growth inhibition by exogenously added rebeccamycin, control strain; assay type: cell-based, Streptomyces albus; conditions: 100 μg rebeccamycin on paper disc, Bennett's agar, 28° C. for 4 days
Method: (§1) Therefore, cosmids 14E8 and 17A12, which conferred the ability to produce rebeccamycin, should also confer resistance to rebeccamycin. In order to confirm this point, we studied the effect of exogenously added rebeccamycin on the growth of S. albus J1074/14E8 and control strain S. albus J1074/pKC505. For this purpose, spores of each strain were used to inoculate plates of Bennett's agar (Kieser et al. Practical Streptomyces genetics, The John Innes Foundation, Norwich, UK, 2000) containing 25 μg/ml apramycin. Different amounts of rebeccamycin (dissolved in acetone) were added to paper discs placed on this pre-seeded medium. The plates were left at 4° C. for an hour to allow diffusion of the rebeccamycin solution, and then they were incubated at 28° C. for 4 days.

[2] = system: S. albus J1074/14E8; experiment: Paper disc growth inhibition by exogenously added rebeccamycin, strain with cosmid 14E8; assay type: cell-based, Streptomyces albus; conditions: Bennett's agar, 28° C. for 4 days
Method: as §1

[3] = system: S. albus J1074; experiment: Growth inhibition of Streptomyces spp.; assay type: cell-based, Streptomyces albus
[4] = system: Staphylococcus aureus; conditions: cited from earlier work
[5] = system: Micrococcus luteus; conditions: cited from earlier work
[6] = system: Streptococcus faecalis; conditions: cited from earlier work
[7] = system: several tumors implanted in mice; conditions: cited from earlier work
[8] = system: several tumor cell lines; conditions: cited from earlier work

CO[C@H]1[C@H](O)[C@@H](O)[C@H](n2c3c(Cl)cccc3c3c4c(c5c6cccc(Cl)c6[nH]c5c32)C(=O)NC4=O)O[C@@H]1CO [Rebeccamycin]
growth of S. albus J1074/pKC505 [1]: totally inhibited | growth of S. albus J1074/14E8 ([2]; 100 μg rebeccamycin on paper disc): fully resistant | growth of S. albus J1074/14E8 ([2]; 200 μg rebeccamycin on paper disc): fully resistant | inhibition of growth of Streptomyces spp. including S. albus J1074 [3]: weak inhibition of growth | antibacterial activity [4]: antibacterial activity | antibacterial activity [5]: antibacterial activity | antibacterial activity [6]: antibacterial activity | antitumor activity in vivo [7]: antitumor activity | antitumor activity in vitro [8]: antitumor activity

Reference: patent US8207321B2, “Method of obtaining idolocarbazoles using biosynthetic rebeccamycin genes” (Universidad De Oviedo, priority 2001, dated 2012)
